In general, IC50 refers to the concentration needed to halve the response being measured.

The structures appear in SMILES notation.

Experiment [1] concerns the target T1, Carnitine O-palmitoyltransferase 1, muscle isoform (Homo sapiens, UniProt Q92523).
T1 sequence (Q92523 whole entry): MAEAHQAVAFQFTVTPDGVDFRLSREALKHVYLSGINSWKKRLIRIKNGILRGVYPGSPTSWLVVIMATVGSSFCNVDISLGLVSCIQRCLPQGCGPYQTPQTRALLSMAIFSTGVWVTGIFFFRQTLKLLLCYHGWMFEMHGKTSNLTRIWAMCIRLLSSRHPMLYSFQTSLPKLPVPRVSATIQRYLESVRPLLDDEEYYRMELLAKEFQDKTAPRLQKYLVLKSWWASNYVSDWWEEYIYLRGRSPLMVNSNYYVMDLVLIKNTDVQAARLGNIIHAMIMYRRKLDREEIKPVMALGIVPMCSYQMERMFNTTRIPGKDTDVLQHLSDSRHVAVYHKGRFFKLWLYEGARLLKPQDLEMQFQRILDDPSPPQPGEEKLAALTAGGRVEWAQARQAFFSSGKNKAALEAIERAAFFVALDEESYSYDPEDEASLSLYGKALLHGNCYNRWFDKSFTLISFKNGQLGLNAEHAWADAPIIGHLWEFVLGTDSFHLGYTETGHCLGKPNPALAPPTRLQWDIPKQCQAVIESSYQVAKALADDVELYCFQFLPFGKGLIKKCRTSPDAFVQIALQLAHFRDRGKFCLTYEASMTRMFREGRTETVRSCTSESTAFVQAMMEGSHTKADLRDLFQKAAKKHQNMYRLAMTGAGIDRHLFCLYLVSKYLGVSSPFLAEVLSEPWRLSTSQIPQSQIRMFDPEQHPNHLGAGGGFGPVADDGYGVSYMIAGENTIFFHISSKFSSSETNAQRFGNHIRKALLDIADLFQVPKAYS
Kind of experiment: SUPPLEMENTARY: Inhibition of Carnitine palmitoyltransferase 1, muscle isoform. On the set-up: species or system Muscle tissue.

The target of experiment [2] is T2, Carnitine O-palmitoyltransferase 2, mitochondrial (Homo sapiens, UniProt P23786).
T2 sequence (P23786 whole entry): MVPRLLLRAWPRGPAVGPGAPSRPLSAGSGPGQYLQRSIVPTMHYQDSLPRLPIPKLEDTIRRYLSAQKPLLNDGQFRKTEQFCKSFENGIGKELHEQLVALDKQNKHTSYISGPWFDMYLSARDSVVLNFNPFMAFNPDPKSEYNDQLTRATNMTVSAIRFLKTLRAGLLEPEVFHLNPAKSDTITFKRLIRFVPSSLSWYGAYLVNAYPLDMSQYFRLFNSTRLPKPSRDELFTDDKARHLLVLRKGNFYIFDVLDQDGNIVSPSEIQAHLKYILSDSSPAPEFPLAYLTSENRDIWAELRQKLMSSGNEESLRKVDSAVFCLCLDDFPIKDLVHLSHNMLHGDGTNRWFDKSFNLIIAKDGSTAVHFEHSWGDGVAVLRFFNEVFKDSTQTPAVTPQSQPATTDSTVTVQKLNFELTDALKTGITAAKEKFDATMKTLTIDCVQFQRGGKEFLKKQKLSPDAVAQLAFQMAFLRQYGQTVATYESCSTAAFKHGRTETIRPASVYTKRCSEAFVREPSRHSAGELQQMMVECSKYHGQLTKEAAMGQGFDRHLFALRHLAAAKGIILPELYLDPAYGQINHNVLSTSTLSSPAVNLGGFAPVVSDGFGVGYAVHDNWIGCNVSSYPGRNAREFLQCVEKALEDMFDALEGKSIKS
The experiment can be described thus: (§1) SUPPLEMENTARY: Inhibition of Carnitine palmitoyltransferase 2.

In experiment [3] the target is T3, Carnitine O-palmitoyltransferase 2, mitochondrial (Rattus norvegicus, UniProt P18886).
T3 sequence (P18886 whole entry): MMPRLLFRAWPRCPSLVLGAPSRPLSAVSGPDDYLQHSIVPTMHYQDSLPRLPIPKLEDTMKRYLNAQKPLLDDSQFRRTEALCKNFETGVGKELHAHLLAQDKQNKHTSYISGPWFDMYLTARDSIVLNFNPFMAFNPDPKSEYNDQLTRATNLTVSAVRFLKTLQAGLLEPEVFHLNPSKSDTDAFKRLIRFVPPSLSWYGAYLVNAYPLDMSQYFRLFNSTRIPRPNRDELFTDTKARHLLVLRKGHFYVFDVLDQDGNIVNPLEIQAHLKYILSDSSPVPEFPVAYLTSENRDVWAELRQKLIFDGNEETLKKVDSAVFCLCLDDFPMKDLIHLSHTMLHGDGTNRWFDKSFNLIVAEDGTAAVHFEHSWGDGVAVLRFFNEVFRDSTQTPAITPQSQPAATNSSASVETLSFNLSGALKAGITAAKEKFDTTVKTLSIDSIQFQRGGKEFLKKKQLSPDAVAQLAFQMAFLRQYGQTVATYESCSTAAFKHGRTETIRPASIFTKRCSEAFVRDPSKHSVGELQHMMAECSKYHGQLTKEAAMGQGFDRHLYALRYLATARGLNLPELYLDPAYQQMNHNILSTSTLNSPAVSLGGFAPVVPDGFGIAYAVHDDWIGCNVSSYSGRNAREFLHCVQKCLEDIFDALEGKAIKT
Described as §1.

The target in experiment [4] is T4, Carnitine O-palmitoyltransferase 1, liver isoform (Homo sapiens, UniProt P50416).
T4 sequence (P50416 whole entry): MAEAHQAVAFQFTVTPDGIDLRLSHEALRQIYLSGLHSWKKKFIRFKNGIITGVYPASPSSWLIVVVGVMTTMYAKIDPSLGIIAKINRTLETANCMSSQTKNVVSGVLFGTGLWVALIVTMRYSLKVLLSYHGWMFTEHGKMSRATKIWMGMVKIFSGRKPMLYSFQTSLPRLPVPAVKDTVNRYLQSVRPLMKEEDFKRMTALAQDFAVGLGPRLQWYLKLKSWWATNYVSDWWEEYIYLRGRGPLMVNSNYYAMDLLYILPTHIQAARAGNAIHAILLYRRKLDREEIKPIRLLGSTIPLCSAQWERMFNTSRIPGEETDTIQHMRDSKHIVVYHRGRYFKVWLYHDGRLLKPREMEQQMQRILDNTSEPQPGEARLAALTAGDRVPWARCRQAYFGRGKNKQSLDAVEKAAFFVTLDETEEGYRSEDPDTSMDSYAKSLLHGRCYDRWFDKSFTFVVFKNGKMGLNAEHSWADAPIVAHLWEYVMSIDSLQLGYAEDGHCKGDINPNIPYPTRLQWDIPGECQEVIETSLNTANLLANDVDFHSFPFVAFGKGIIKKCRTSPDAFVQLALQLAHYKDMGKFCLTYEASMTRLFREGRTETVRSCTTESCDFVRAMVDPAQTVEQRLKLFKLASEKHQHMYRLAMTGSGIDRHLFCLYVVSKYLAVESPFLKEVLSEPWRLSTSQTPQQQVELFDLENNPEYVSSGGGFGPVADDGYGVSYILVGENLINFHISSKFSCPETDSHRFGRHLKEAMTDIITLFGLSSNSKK
The experiment can be described thus: (§2) SUPPLEMENTARY: Inhibition of Carnitine palmitoyltransferase 1, liver isoform.

For experiment [5], the target named is T5, Carnitine O-palmitoyltransferase 1, liver isoform (Rattus norvegicus, UniProt P32198).
T5 sequence (P32198 whole entry): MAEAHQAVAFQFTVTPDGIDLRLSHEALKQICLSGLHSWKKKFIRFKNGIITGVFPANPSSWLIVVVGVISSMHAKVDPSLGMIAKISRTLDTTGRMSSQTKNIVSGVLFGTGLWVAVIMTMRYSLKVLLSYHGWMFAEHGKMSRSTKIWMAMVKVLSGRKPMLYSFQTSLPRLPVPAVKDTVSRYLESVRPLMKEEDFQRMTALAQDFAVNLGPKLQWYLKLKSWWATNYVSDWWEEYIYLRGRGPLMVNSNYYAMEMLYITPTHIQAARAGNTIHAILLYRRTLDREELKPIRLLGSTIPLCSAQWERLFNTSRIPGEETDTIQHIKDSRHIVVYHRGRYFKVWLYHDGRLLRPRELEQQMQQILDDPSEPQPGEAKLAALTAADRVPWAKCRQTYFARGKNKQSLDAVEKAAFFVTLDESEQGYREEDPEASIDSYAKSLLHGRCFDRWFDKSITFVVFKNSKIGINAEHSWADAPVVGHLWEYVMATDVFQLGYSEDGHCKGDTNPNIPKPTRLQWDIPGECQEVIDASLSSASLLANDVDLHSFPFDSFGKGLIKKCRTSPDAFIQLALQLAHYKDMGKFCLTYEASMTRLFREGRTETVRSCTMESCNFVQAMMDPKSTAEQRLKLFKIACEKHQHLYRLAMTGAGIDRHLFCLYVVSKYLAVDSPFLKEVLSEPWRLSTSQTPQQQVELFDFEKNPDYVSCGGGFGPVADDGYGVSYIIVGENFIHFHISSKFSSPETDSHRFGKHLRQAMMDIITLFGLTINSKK
The experiment is described as §2.

With `COc1ccc(Cl)cc1S(=O)(=O)N(c1cc(C(=O)Nc2nc(CC(=O)O)cs2)cc2c1OCO2)C(C)C`, the IC50 is 2970 nM in experiment [1]; 13800 nM in experiment [2]; more than 100000 nM in experiment [3]; 224 nM in experiment [4]; 188 nM in experiment [5].

Take `CS(=O)(=O)c1ccc(-n2nnc([C@H]3CCCCN3C(=O)COc3ccccc3)n2)cc1`: the IC50 in experiment [1] was more than 100000 nM; in experiment [2] it was 17400 nM; in experiment [3], more than 100000 nM; in experiment [4], 123 nM; in experiment [5] it was 607 nM.

On to `COc1ccc(Cl)cc1S(=O)(=O)N1C[C@@H](C(=O)O)Oc2ccc(C(=O)Nc3ccccc3)cc21`, for which the IC50 in experiment [1] is 16900 nM; in experiment [2], more than 100000 nM; in experiment [3], more than 100000 nM; in experiment [4], 40.2 nM; in experiment [5], 14.6 nM.

Consider `O=C(COc1ccccc1)N1CCCC[C@@H]1C#Cc1ccc2[nH]cnc2c1`, for which the IC50 in experiment [1] is 7310 nM; in experiment [2] it was more than 100000 nM; in experiment [3], more than 100000 nM; in experiment [4], 130 nM; in experiment [5], 72.2 nM.

`O=C(O)c1ccccc1CCc1ccc(NS(=O)(=O)c2ccc(Cl)cc2)cc1`: the IC50 in experiment [1] is more than 100000 nM; in experiment [2] it was more than 100000 nM; in experiment [3] it was 28000 nM; in experiment [4] it was more than 10000 nM; in experiment [5] it was more than 10000 nM.

Take `O=C(NCc1ccc(-c2nnn[nH]2)cc1)c1nn(Cc2ccc(OC(F)F)cc2)c2ccc(F)cc12`: the IC50 in experiment [1] is 8510 nM; in experiment [2], more than 100000 nM; in experiment [3], more than 100000 nM; in experiment [4] it was 221 nM; in experiment [5] it was 394 nM.

Regarding `O=C1Nc2ccc(-c3n[nH]c([C@H]4CCCCN4C(=O)COc4ccccc4)n3)cc2CO1`, the IC50 in experiment [1] stood at 70700 nM; in experiment [2], 26400 nM; in experiment [3] it was 50400 nM; in experiment [4] it was 223 nM; in experiment [5] it was 840 nM.

Consider `COCCN(c1cc(C(=O)Nc2ncc(CC(=O)O)s2)cc2c1OCO2)S(=O)(=O)c1cc(Cl)ccc1OC`, for which the IC50 in experiment [1] was 914 nM; in experiment [2] it was more than 100000 nM; in experiment [3], more than 100000 nM; in experiment [4], 315 nM; in experiment [5], 157 nM.

As for `CCN(c1cc(C(=O)Nc2ccn(CC(=O)O)n2)cc2c1OCO2)S(=O)(=O)c1cc(Cl)ccc1OC`, the IC50 was 1370 nM in experiment [1]; more than 100000 nM in experiment [2]; more than 100000 nM in experiment [3]; 339 nM in experiment [4]; 686 nM in experiment [5].

For the compound `O=C(COc1ccccc1)N1CCNCC1c1nc(-c2ccc(N3CCOCC3)cc2)no1` (stereo not given), the IC50 in experiment [1] was more than 100000 nM; in experiment [2], more than 100000 nM; in experiment [3] it was more than 100000 nM; in experiment [4], 88.7 nM; in experiment [5], 489 nM.

For the compound `O=C([C@H]1CCCCN1C(=O)COc1ccccc1)N1CCN(c2cccc(Cl)c2)CC1`, the IC50 in experiment [1] was more than 100000 nM; in experiment [2] it was 544 nM; in experiment [3], 291 nM; in experiment [4], 151 nM; in experiment [5], 233 nM.

As for `COc1ccc(Cl)cc1S(=O)(=O)N(c1cc(C(=O)Nc2ccn(CC(=O)O)n2)cc2c1OCO2)C(C)C`, the IC50 is 5280 nM in experiment [1]; more than 100000 nM in experiment [2]; more than 100000 nM in experiment [3]; 1070 nM in experiment [4]; 6020 nM in experiment [5].

As to `COc1ccc(Cl)cc1S(=O)(=O)N(CCC(=O)O)c1cc(C(=O)Nc2ccccc2)cc2c1OCO2`, the IC50 was 2810 nM in experiment [1]; more than 100000 nM in experiment [2]; more than 100000 nM in experiment [3]; 175 nM in experiment [4]; 1720 nM in experiment [5].

In the case of `COc1ccc(Cl)cc1S(=O)(=O)N(C)c1cc(C(=O)Nc2ccc(CC(=O)O)cc2)cc2c1OCO2`, the IC50 in experiment [1] is 857 nM; in experiment [2], more than 100000 nM; in experiment [3], more than 100000 nM; in experiment [4], 391 nM; in experiment [5], 362 nM.

For `CCN(c1cc(C(=O)Nc2ccc(CC(=O)O)cc2)cc2c1OCO2)S(=O)(=O)c1cc(Cl)ccc1OC`, the IC50 in experiment [1] is 2800 nM; in experiment [2] it was 37700 nM; in experiment [3] it was more than 100000 nM; in experiment [4] it was 285 nM; in experiment [5], 350 nM.

Regarding `COc1ccc(Cl)cc1S(=O)(=O)N(c1cc(C(=O)Nc2ccc(CC(=O)O)cc2)cc2c1OCO2)C(C)C`, the IC50 in experiment [1] was 598 nM; in experiment [2], 52200 nM; in experiment [3] it was more than 100000 nM; in experiment [4], 890 nM; in experiment [5] it was 1090 nM.

(Values after ChEMBL document CHEMBL3431459, “Roche carnitine palmitoyltransferase modulator screening data (supplementary data associated with the publication CHEMBL2216752)”.)
